≈ marks a conversion by molar mass, not a printed value. Where “and” joins values, the source holds several entries; their conditions need not be identical. Identical values can stand only once. Like-named read-outs stand apart in the source and are kept apart here.
Columns and labels:
MDCK-MDR1 cells = assay: MDCK-MDR1 permeability; conditions: percent transported from the optical to basal side
[1] = Kinetic solubility, 96-well plate assay; type: physicochemical; conditions: for solubility at 90 min: phosphate buffer
[2] = Parallel artificial membrane permeability assay; type: in vitro ADME; conditions: 4 h; for PAMPA pH 5.5, percent transported: pH 5.5, 10 μM; for PAMPA pH 7.4, percent transported: pH 7.4, 10 μM
κ opioid receptor [3] = molecular target: T1, κ opioid receptor (Homo sapiens, UniProt P41145); conditions: for δ/κ: selectivity for κ relative to δ; for δ/κ / μ/κ: ratio of Ke values; for μ/κ: selectivity for κ relative to μ; for Ke κ, U69,593: cloned human κ receptor, mean (SE), at least three independent experiments
T1 sequence (P41145 whole entry): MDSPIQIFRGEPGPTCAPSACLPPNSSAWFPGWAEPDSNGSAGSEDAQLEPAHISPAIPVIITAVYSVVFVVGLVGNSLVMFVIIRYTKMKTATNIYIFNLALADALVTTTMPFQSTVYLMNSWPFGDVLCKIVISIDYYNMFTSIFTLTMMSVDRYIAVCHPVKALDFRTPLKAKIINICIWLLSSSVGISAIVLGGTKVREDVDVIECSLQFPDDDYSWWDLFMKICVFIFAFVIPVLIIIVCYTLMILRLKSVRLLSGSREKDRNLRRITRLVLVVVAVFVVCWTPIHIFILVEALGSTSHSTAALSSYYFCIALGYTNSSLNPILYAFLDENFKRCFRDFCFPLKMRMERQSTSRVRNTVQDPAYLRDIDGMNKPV

μ opioid receptor [4] = molecular target: T2, μ opioid receptor (Homo sapiens, UniProt P35372); assay: biochemical
T2 sequence (P35372 whole entry): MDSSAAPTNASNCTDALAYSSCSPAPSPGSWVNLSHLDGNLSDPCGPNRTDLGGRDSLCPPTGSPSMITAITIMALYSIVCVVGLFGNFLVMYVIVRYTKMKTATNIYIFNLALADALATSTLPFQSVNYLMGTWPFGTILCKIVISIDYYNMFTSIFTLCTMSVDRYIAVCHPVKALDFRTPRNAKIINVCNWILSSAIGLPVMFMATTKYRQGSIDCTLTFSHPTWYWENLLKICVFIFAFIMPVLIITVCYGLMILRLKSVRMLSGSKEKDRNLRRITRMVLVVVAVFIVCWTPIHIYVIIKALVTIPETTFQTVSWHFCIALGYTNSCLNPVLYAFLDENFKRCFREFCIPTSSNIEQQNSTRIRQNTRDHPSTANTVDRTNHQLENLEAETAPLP

δ opioid receptor [5] = molecular target: T3, δ opioid receptor (Homo sapiens, UniProt P41143); assay: biochemical
T3 sequence (P41143 whole entry): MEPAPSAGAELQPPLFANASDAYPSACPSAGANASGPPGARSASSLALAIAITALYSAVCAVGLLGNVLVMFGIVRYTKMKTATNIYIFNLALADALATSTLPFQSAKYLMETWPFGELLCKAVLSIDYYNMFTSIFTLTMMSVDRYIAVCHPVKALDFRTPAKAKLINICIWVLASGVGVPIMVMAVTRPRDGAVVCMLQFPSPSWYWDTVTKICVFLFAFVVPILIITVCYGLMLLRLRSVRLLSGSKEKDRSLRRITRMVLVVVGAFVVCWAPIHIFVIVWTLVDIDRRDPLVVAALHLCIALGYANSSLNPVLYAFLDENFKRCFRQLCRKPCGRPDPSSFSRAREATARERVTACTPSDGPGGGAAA

κ opioid receptor [6] = molecular target: T1, κ opioid receptor; assay: biochemical
hERG channel = hERG channel (Homo sapiens, UniProt Q12809); assay: hERG [3H]astemizole radioligand displacement assay
Chain of hERG channel (Q12809 whole entry): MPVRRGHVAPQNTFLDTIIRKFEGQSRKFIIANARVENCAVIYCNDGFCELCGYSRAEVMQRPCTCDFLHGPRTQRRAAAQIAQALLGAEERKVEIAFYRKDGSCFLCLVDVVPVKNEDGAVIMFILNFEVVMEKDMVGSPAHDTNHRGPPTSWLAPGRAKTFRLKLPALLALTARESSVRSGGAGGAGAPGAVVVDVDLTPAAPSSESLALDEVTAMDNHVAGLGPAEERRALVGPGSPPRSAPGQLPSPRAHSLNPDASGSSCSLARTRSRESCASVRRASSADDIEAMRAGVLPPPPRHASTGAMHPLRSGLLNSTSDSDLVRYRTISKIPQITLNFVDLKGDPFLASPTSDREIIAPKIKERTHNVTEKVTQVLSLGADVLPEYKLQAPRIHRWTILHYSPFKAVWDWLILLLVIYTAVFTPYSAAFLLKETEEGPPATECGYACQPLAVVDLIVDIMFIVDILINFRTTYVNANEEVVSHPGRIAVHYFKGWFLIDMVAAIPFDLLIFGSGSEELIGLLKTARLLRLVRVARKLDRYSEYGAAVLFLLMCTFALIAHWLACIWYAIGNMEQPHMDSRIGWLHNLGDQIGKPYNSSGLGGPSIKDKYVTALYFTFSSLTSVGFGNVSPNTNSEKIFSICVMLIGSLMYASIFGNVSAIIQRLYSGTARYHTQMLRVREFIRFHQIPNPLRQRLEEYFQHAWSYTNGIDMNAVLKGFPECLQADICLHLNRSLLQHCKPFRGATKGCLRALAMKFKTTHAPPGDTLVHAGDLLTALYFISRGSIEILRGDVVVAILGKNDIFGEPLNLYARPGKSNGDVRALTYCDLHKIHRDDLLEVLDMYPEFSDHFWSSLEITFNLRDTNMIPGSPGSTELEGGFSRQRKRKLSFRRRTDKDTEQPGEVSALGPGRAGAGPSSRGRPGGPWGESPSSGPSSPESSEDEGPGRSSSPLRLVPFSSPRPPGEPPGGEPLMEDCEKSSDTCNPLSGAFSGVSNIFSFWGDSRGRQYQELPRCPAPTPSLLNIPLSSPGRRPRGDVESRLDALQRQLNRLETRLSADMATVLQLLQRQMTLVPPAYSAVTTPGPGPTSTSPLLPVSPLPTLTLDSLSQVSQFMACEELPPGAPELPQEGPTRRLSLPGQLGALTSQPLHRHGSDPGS

δ opioid receptor [7] = conditions: read-out: Ki δ; cited from earlier work
μ opioid receptor [8] = molecular target: T2, μ opioid receptor; conditions: cloned human μ receptor; mean (SE), at least three independent experiments
δ opioid receptor [9] = molecular target: T3, δ opioid receptor; conditions: for behaviour at the δ receptor: δ opioid receptor [35S]GTPγS assay, result in words; for Ke δ, DPDPE: cloned human δ receptor
[10] = mean (SE), at least three independent experiments

| Molecule | S9 stability (% of parent) (S9 stability) | plasma stability (% of parent) (Plasma stability) | MDCK, percent transported (MDCK-MDR1 cells) [%] | δ/κ (κ opioid receptor [3]) | μ/κ (κ opioid receptor [3]) | Ke μ, DAMGO (μ opioid receptor [8]) | Ke κ, U69,593 (κ opioid receptor [3]) | Ke δ, DPDPE (δ opioid receptor [9]; [10]) | also measured |
| --- | --- | --- | --- | --- | --- | --- | --- | --- | --- |
| CC(C)[C@@H](CN1CC[C@@](C)(c2ccccc2)[C@@H](C)C1)NC(=O)[C@H]1Cc2ccc(O)cc2CN1 [Compound 4, (3R)-N-[(1S)-1-{[(3R,4R)-3,4-Dimethyl-4-phenylpiperidin-1-yl]methyl}-2-methylpropyl]-7-hydroxy-1,2,3,4-tetrahydroisoquinoline-3-carboxamide] | 82.0 % of parent | 67.0 % of parent | 27 | – | – | – | – | – | – |
| CC(C)[C@@H](CN1CC[C@@](C)(c2cccc(O)c2)[C@@H](C)C1)NC(=O)[C@H]1Cc2ccc(C(N)=O)cc2CN1 [Compound 13, (3R)-N^3-[(1S)-1-{[(3R,4R)-4-(3-Hydroxyphenyl)-3,4-dimethylpiperidin-1-yl]methyl}-2-methylpropyl]-1,2,3,4-tetrahydroisoquinoline-3,7-dicarboxamide] | 91.5 % of parent | 84.7 % of parent | 17 | 6550 | 355 | – | – | – | solubility at pH 7.4 ([1]; pH 7.4): > 20%; solubility at 90 min ([1]; pH 3): 77 µM (≈ 37.9 µg/mL); solubility at 90 min ([1]; pH 7.4): 38 µM (≈ 18.7 µg/mL); PAMPA pH 5.5, percent transported [2]: 39.1%; PAMPA pH 7.4, percent transported [2]: 28.3%; Kb (μ opioid receptor [4]): 7.09 ± 2.58 nM; Kb (δ opioid receptor [5]): 131 ± 23 nM; Kb (κ opioid receptor [6]): 0.02 ± 0.005 nM; Ki (hERG channel): > 10000 nM |
| CC(C)[C@@H](CN1CC[C@@](C)(c2cccc(C(N)=O)c2)[C@@H](C)C1)NC(=O)[C@H]1Cc2ccc(C(N)=O)cc2CN1 [Compound 14, (3R)-N^3-[(1S)-1-{[(3R,4R)-4-(3-Carbamoylphenyl)-3,4-dimethylpiperidin-1-yl]methyl}-2-methylpropyl]-1,2,3,4-tetrahydroisoquinoline-3,7-dicarboxamide] | 90.9 % of parent | 55.3 % of parent | 14 | 4700 | 230 | – | – | – | solubility at pH 7.4 ([1]; pH 7.4): > 20%; solubility at 90 min ([1]; pH 3): 100 µM (≈ 52 µg/mL); solubility at 90 min ([1]; pH 7.4): 81 µM (≈ 42.1 µg/mL); PAMPA pH 5.5, percent transported [2]: 36.4%; PAMPA pH 7.4, percent transported [2]: 32.2%; Kb (μ opioid receptor [4]): 25.3 ± 7.89 nM; Kb (δ opioid receptor [5]): 517 ± 52 nM; Kb (κ opioid receptor [6]): 0.11 ± 0.02 nM; Ki (hERG channel): > 10000 nM |
| CC(C)[C@@H](CN1CC[C@@](C)(c2cccc(O)c2)[C@@H](C)C1)NC(=O)[C@H]1Cc2ccc(O)cc2CN1 [JDTic, (3R)-1,2,3,4-tetrahydro-7-hydroxy-N-[(1S)-1-[[(3R,4R)-4-(3-hydroxyphenyl)-3,4-dimethyl-1-piperidinyl]methyl]-2-methylpropyl]-3-isoquinolinecarboxamide, reference compound] | 76 % of parent | 97 % of parent | 11 | – | – | – | – | – | – |
| C[C@H]1CN(CC[C@H](O)C2CCCCC2)CC[C@@]1(C)c1cccc(O)c1 [LY255582] | – | – | – | – | – | – | – | – | Ki (δ opioid receptor [7]): 4.8 nM |
| (3R)-7-Fluoro-N-[(1S)-1-{[(3R,4R)-4-(3-Fluorophenyl)-3,4-dimethylpiperidin-1-yl]methyl}-2-methylpropyl]-1,2,3,4-tetrahydroisoquinoline-3-carboxamide [Compound 12] | – | – | – | – | 162 | 360 ± 63 nM | 2.22 nM and 2.22 ± 0.47 nM | – | behaviour at the δ receptor (δ opioid receptor [9]): weak inverse agonist |
| (3R)-7-Fluoro-N-[(1S)-1-{[(3R,4R)-4-(3-Hydroxyphenyl)-3,4-dimethylpiperidine-1-yl]methyl}-2-methylpropyl]-1,2,3,4-tetrahydroisoquinoline-3-carboxamide [Compound 10] | – | – | – | – | 3.5 | 7.7 ± 0.9 nM | 2.20 ± 0.47 nM | – | behaviour at the δ receptor (δ opioid receptor [9]): weak inverse agonist |
| (3R)-N-[(1S)-1-{[(3R,4R)-3,4-Dimethyl-4-phenylpiperidin-1-yl]methyl}-2-methylpropyl]-1,2,3,4-tetrahydroisoquinoline-3-carboxamide [Compound 11] | – | – | – | >188 | 45 | 724 ± 146 nM | 16 ± 7 nM | – | Ke δ, DPDPE (δ opioid receptor [9]): >3000 nM |
| (3R)-N-[(1S)-1-{[(3R,4R)-4-(3-Aminophenyl)-3,4-dimethylpiperidin-1-yl]methyl}-2-methylpropyl]-7-hydroxy-1,2,3,4-tetrahydroisoquinoline-3-carboxamide [Compound 8] | – | – | – | 7600 | 42 | 10.6 nM and 10.6 ± 3.6 nM | 0.25 ± 0.09 nM | 1899 ± 657 nM | – |
| (3R)-N-[(1S)-1-{[(3R,4R)-4-(3-Bromophenyl)-3,4-dimethylpiperidin-1-yl]methyl}-2-methylpropyl]-7-hydroxy-1,2,3,4-tetrahydroisoquinoline-3-carboxamide [Compound 7] | – | – | – | 2200 | 25 | 6.56 ± 0.44 nM | 0.268 nM and 0.268 ± 0.01 nM | 594 ± 160 nM | – |
| (3R)-N-[(1S)-1-{[(3R,4R)-4-(3-Chlorophenyl)-3,4-dimethylpiperidin-1-yl]methyl}-2-methylpropyl]-7-hydroxy-1,2,3,4-tetrahydroisoquinoline-3-carboxamide [Compound 6] | – | – | – | 17600 | 175 | 6.81 ± 2.6 nM | 0.039 ± 0.001 nM | 685 ± 99 nM | – |
| (3R)-N-[(1S)-1-{[(3R,4R)-4-(3-Hydroxyphenyl)-3,4-dimethylpiperidin-1-yl]methyl}-2-methylpropyl]-7-1,2,3,4-tetrahydroisoquinoline-3-carboxamide [Compound 9] | – | – | – | 37 | 3.7 | 16 ± 5 nM | 4.3 ± 2 nM | 158 nM and 158 ± 49 nM | – |
| (3R)-N^3-[(1S)-1-{[(3R,4R)-3,4-Dimethyl-4-phenylpiperidin-1-yl]methyl}-2-methylpropyl]-1,2,3,4-tetrahydroisoquinoline-3,7-dicarboxamide [Compound 15] | – | – | – | 2700 | 163 | 6.70 ± 2.1 nM | 0.041 ± 0.006 nM | 111 ± 29 nM | – |

From publication PMC4161151 (Journal of Medicinal Chemistry, 2014)
